The values below come from patent US20240002326A1, “COMPOUNDS AND USE THEREOF IN METHODS OF TREATMENT” (The University of Queensland, priority 2016, published 2024).

One data set addresses full-length mouse SOX18 (Mus musculus (Mouse), UniProt P43680). Nature of the data set: FP DNA-binding competition assay, full-length SOX18. The settings on record: full-length mouse SOX18, Prox1-DNA probe, read-out: FP IC50 ± SD. How it is done:
Full-length mouse SOX18. A N-terminally tagged mouse HIS-GST-SOX18 was recombinantly expressed in Sf9 cells, purified on GST resin (GE Healthcare Life Sciences, Sweden) and eluted in Tris buffer (50 mM Tris, 500 mM NaCl, 10 mM reduced glutathione, pH 8.0). cDNA clone of mouse Sox18 was PCR amplified and cloned into the pOPIN-GST vector, to generate N-terminally tagged HIS-GST-SOX18. A sequence verified construct was co-transfected with flashBACULTRA (Oxford Expression Technologies, Oxford, United Kingdom) baculovirus DNA onto Spodoptera frugiperda Sf9 cells to obtain recombinantly expressed HIS-GST-SOX18. High Five cells (BTI-TN-5B1-4) in Sf-900™ II serum-free medium were infected at cell density of 1.5×10^6 cells/mL with a multiplicity of infection (MOI) of 5 PFU/cell, and incubated at 21° C. for 144 h before harvest. The cell pellet from 100 mL of expression culture was resuspended in 30 mL of phosphate lysis buffer (50 mM sodium phosphate, 500 mM sodium chloride, 1% Triton X-100, 2 mM magnesium chloride, one tablet of cOmplete Protease Inhibitor Cocktail, pH 7.5) and sonicated on ice for 20 s. The cell lysate was centrifuged at 17,000×g for 40 min at 4° C. Supernatant was incubated with Benzonase Nuclease (Merck Millipore) for 1 h at room temperature for DNA degradation, before being mixed with 500 μL GST resin (GE Healthcare Life Sciences, Sweden) and incubated on a rotating wheel at room temperature for 1 h. The sample was centrifuged at 500×g for 1 min to remove unbound protein in the supernatant. The resin was further washed with 50 resin volumes (RV) wash buffer (50 mM sodium phosphate, 500 mM NaCl, pH 7.5), with unbound protein removed by centrifugation as above. Bound protein was eluted from the resin with 3×1 RV elution buffer (50 mM Tris, 500 mM NaCl, 10 mM reduced glutathione, pH 8.0), collecting the supernatant by centrifugation as above.
The DNA-binding competition assay was performed in black 384-well plates, with mouse full length SOX18, or SOX-HMG fragments. All experiments were performed using a fluorescently-labelled Prox1-DNA element. Controls consisted of free labelled DNA (low FP milli-Polarization index, mP), labelled DNA in presence of protein (negative control, high mP), and labelled DNA and protein in presence of competing excess of unlabelled DNA (positive control, low mP)
The DNA-binding competition assay was performed in 25 uL, in black 384-well plates, using either 30 mM HEPES (N-2-Hydroxyethylpiperazine-N′-2-Ethanesulfonic Acid) (pH 7.5, with 100 mM KCl, 40 mM NaCl, 10 mM NH4OAc, […], 2 mM MgCl2, 0.5 mM EDTA, 0.01% NP-40) for mouse full length SOX18, or Tris-NaCl (10 mM Tris pH 8.0 and 100 mM NaCl) for SOX-HMG fragments. All experiments were performed using a 40 bp double-stranded Prox1-DNA element with 5′ fluorescein amidite (FAM) label (Sigma Proligo or InVitrogen). Optimum binding levels were obtained at 200 nM of mouse full length SOX18 and 60 nM of SOX-HMG fragment, in presence of 5 nM labelled DNA. Controls consisted of free labelled DNA (low FP milli-Polarization index, mP), labelled DNA in presence of protein (negative control, high mP), and labelled DNA and protein in presence of 400 time competing excess of unlabelled DNA (positive control, low mP). Depending on compound, final DMSO concentrations ranged from 2 to 3.33% v/v. After mixing protein, DNA probe and compound, plates were sealed and briskly agitated in the dark for 5 minutes at room temperature, 10 minutes at 37° C., and 30 minutes at room temperature, before reading fluorescence polarization on a Tecan M1000Pro (λexc=485 nm, λem=525 nm). All experiments were performed in triplicates.

The subject of another data set is scrambled DNA. Nature of the data set: Direct DNA-binding assay (SPR), scrambled DNA. The settings on record: biotinylated double-strand DNA on streptavidin chip. How it is done:
Compounds were tested at a 1% v/v DMSO in HBS-EP buffer (10 mM HEPES, 150 mM NaCl, 3 mM EDTA, 0.005% v/v polysorbate 20, pH 7.4). The same buffer supplemented with 1% v/v DMSO was used as a mobile phase. DNA minor groove binder DAPI (4′,6-diamidino-2-phenylindole), DNA intercalator and minor groove binder actinomycin D, and DNA intercalator ethidium bromide were used as positive controls. Biotinylated (one tag per probe) double strand DNA probes were prepared using a standard annealing routine (5 min at 100° C., room temperature overnight and stored at −20° C.) of single strand anti-parallel DNA Probes purchased from Geneworks and were immobilized on CM5-SA streptavidin chips as per manufacturer's recommendations. […] All sample and control cycles were performed in triplicate. DMSO calibration was performed as per manufacturer's recommendations. After each injection, an extra flow system wash was performed with 50% v/v DMSO to avoid carryover. Experiments were run on a Biacore T200 (GE Healthcare, USA), with one flow cell kept as a reference.
From a molecular viewpoint, an inhibitor of SOX18-DNA binding could act either by interacting directly with the DNA, or the protein, or at the interface between protein and DNA. Binding of small molecules directly to the DNA, even though reported for other TFs (Leung et al., 2013), has the potential for unspecific DNA binding, leading to possible genotoxicity, mutagenicity, or carcinogenicity. For this reason, we developed a direct binding assays to determine whether the active compounds interact directly with DNA or protein. A surface plasmon resonance-based method was developed to analyse the binding of small molecules to biotinylated double stranded DNA immobilized on the surface of a streptavidin chip. The method measures the rate of binding (kon), dissociation (koff) and binding constant (KD), and was used to measure the binding to two different DNA sequences: SOX binding site consensus DNA, and scrambled DNA. Intercalating agents ethidium bromide and Actinomycin D, and the minor groove-binding agent 4′,6-diamino-2-phenylindole (DAPI) were used as positive controls for unselective DNA binding.

A further data set relates to HepG2. Kind of data set: Cytotoxicity assay (Alamar blue), HepG2. The class given is cell-based. The settings on record: HepG2, 24 h. A general note: Alamar Blue is a resazurin reagent that responds to reducing activity.

Usually IC50 stands for the concentration that inhibits the measured activity by half. The term CC50 denotes the concentration at which the toxic effect on the cells reaches its halfway point.

Chain of full-length mouse SOX18 (P43680 whole entry): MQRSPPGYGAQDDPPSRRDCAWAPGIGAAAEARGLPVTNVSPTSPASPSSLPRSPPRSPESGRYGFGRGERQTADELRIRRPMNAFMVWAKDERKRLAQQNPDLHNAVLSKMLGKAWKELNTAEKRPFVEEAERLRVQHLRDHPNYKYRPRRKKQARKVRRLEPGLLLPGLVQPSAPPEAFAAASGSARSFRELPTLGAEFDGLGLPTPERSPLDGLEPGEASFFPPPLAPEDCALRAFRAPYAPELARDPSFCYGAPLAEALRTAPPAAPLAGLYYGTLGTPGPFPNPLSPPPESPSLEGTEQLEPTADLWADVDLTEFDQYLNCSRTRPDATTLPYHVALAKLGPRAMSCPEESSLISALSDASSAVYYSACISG

In the case of `O=C(O)c1ccccc1Nc1cccc(C(F)(F)F)c1` [Flufenamic acid, reference compound], the IC50 at full-length mouse SOX18 came to 220 ± 68.6 µM. `O=C(O)c1c(O)cccc1COCCc1ccccc1` [Sm5]: in the data set on scrambled DNA, the “binding to scrambled DNA (SPR)” value was “do not bind”. On full-length mouse SOX18, the IC50 turned out to be 1100 µM. In turn, `CCN(CC)C(=O)c1c(O)cc(O)cc1CCc1ccc2ccccc2c1` [Sm26, N,N,diethyl-2,4-hydroxy-6-(2-(naphthalen-2-yl)ethyl)benzamide] displayed a CC50 with HepG2 of 16.8 µM.
